The text below walks through data of patent US20220257974A1, “PHOTOBIOMODULATION METHOD AND SYSTEM FOR INDUCING ACTIVITY OF BRAINDERIVED NERVE GROWTH FACTOR IN HIPPOCAMPAL TISSUE” (INDUSTRY ACADEMIC COOPERATION FOUNDATION KEIMYUNG UNIVERSITY, priority 2019, published 2022).

The test system of assay [1] is BDNF. Particulars: PTSD-induced mice; cited from earlier work.
The subject of assay [2] is BDNF. The experiment in a line: RT-PCR of BDNF expression in HT-22 cell. It counts as cell-based. Particulars: H2O2 treatment. From the text: The used […] BDNF, forward [NT], and reverse [NT]; glutathione peroxidase (GPx), forward [NT], and reverse [NT]; superoxide dismutasee 1 (SOD1), forward [NT], and reverse [NT]; glutathione reductase (GR), forward [NT], and reverse [NT]; and h-GAPDH transfer [NT], reverse [NT]. All experiments were implemented three times.

In another assay the test system is HT-22 cells. Briefly: MTT analysis of cell survival under H2O2-induced oxidative stress. It counts as cell-based. The note with it: without LED light. The protocol: The protection against apoptosis was analyzed using CCK-8 kit (Dojindo, Gaithersburg, Md.) and MTT as follows: HT-22 cells (5×10^5/ml) were plated on a 96-well plate and cultured in 100 µL of DMEM medium for 24 hours. Various concentrations of H2O2 were added to the cells, and the cells were cultured for 24 hours with LED irradiation of 660 nm. Then, 10 µL of MTT solution (5 mg/ml MTT in PBS) was added to each well and cultured at 37° C. for 2 hours. Absorbance was measured at 450 nm and 564 nm with a Victor multi label counter (Wallac, Turku, Finland).
The hippocampus HT-22 cell line was used to evaluate the effect of H2O2-induced oxidative stress on cell survival and apoptosis inhibitory effect by 660 nm of LED light (FIG. 2). […] In contrast, treatment with 660 nm of LED light increased cell survival rates to 88.4, 66.2, and 22.0%, respectively.

The next assay deals with p-ERK and p-CREB. Briefly: Western blot analysis of ERK and CREB phosphorylation in HT-22 cells. The format is cell-based. Particulars: H2O2 treatment. As to the method: The level of protein expression was evaluated by Western blot analysis. Cells were dissolved and centrifuged at 16,000 g. Then, the supernatant was electrophoresed at 12% SDA-PAGE and transferred to a nitrocellulose membrane. After blocking with 5% skim milk among Tween (0.05%)/PBS for 1 hour, the membrane was detected with primary antibody and a horseradish peroxidase (HRP)-conjugated antibody. The immunoreactive band was visualized using West Femto Chemi-luminescent substrate (Thermo). Protein levels were standardized with -actin expression using ChemiDOC XRS+ (Bio-Rad, Hercules, Calif., USA).
For orientation: A western blot detects proteins with antibodies after separation by electrophoresis.

Take `CNCCC(Oc1ccc(C(F)(F)F)cc1)c1ccccc1` (stereo not drawn) [fluoxetine]: the “expression of BDNF and exercise ability” value in the assay with BDNF [1] is on record as “improved”.

For `OO` [H2O2], the BDNF expression result in the assay with BDNF [2] is “reduced BDNF expression”. Besides, the cell survival rate in the assay on HT-22 cells (H2O2 100M) is given as 72.7%; with HT-22 cells (H2O2 300M), 57.3%; in the assay on HT-22 cells (H2O2 1000M) it was 20.7%. Moreover, the “p-ERK and p-CREB levels” value in the assay on p-ERK and p-CREB is “increased p-ERK and p-CREB levels”.
